Data taken from PubChem BioAssay (NCI).
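96-well plates; 48 h exposure; 5 concentrations. Endpoints by linear interpolation between flanking doses. Not reached: highest tested concentration assigned. Here, GI50 denotes the concentration required for 50% inhibition of growth. The concentration for full growth arrest is given as TGI.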

Assays:
Experiment in all cases: NCI anticancer screen, dose series, 48 h
SNB-75 CNS = system: SNB-75 CNS
786-0 renal = system: 786-0 renal
A498 renal = system: A498 renal
A549 NSCLC = system: A549 NSCLC
ACHN renal = system: ACHN renal
CAKI-1 renal = system: CAKI-1 renal
CCRF-CEM leukemia = system: CCRF-CEM leukemia
COLO 205 colon = system: COLO 205 colon
DU-145 prostate = system: DU-145 prostate
EKVX NSCLC = system: EKVX NSCLC
HCC-2998 colon = system: HCC-2998 colon
HCT-116 colon = system: HCT-116 colon
HCT-15 colon = system: HCT-15 colon
HL-60(TB) leukemia = system: HL-60(TB) leukemia
HOP-62 NSCLC = system: HOP-62 NSCLC
HOP-92 NSCLC = system: HOP-92 NSCLC
HS 578T breast = system: HS 578T breast
HT29 colon = system: HT29 colon
IGROV1 ovarian = system: IGROV1 ovarian
KM12 colon = system: KM12 colon
LOX IMVI melanoma = system: LOX IMVI melanoma
M14 melanoma = system: M14 melanoma
MALME-3M melanoma = system: MALME-3M melanoma
MCF7 breast = system: MCF7 breast
MDA-MB-231 breast = system: MDA-MB-231 breast
MDA-MB-435 = system: MDA-MB-435
MOLT-4 leukemia = system: MOLT-4 leukemia
NCI-H23 lung = system: NCI-H23 lung
NCI-H460 lung = system: NCI-H460 lung
NCI-H522 lung = system: NCI-H522 lung
NCI/ADR-RES ovarian = system: NCI/ADR-RES ovarian
OVCAR-3 ovarian = system: OVCAR-3 ovarian
OVCAR-4 ovarian = system: OVCAR-4 ovarian
OVCAR-5 ovarian = system: OVCAR-5 ovarian
OVCAR-8 ovarian = system: OVCAR-8 ovarian
PC-3 prostate = system: PC-3 prostate
RPMI-8226 leukemia = system: RPMI-8226 leukemia
RXF 393 renal = system: RXF 393 renal
SF-268 CNS = system: SF-268 CNS
SF-295 CNS = system: SF-295 CNS
SF-539 CNS = system: SF-539 CNS
SK-MEL-2 melanoma = system: SK-MEL-2 melanoma
SK-MEL-28 melanoma = system: SK-MEL-28 melanoma
SK-MEL-5 melanoma = system: SK-MEL-5 melanoma
SK-OV-3 ovarian = system: SK-OV-3 ovarian
SN12C renal = system: SN12C renal
SNB-19 CNS = system: SNB-19 CNS
SR leukemia = system: SR leukemia
SW-620 colon = system: SW-620 colon
T-47D breast = system: T-47D breast
TK-10 renal = system: TK-10 renal
U251 CNS = system: U251 CNS
UACC-257 melanoma = system: UACC-257 melanoma
UACC-62 melanoma = system: UACC-62 melanoma
UO-31 renal = system: UO-31 renal
BT-549 breast = system: BT-549 breast
K-562 leukemia = system: K-562 leukemia

CC(=O)OCCCCCn1cnc(C(N)=O)c1N
GI50 (SNB-75 CNS): 87.1 µM

c1csc(-c2csc(-c3cccs3)c2)c1
TGI (786-0 renal): > 100 µM | TGI (A498 renal): > 100 µM | TGI (A549 NSCLC): > 100 µM | TGI (ACHN renal): > 100 µM | TGI (CAKI-1 renal): > 100 µM | TGI (CCRF-CEM leukemia): > 100 µM | TGI (COLO 205 colon): 32.8 µM | TGI (DU-145 prostate): > 100 µM | TGI (EKVX NSCLC): > 100 µM | TGI (HCC-2998 colon): > 100 µM | TGI (HCT-116 colon): > 100 µM | TGI (HCT-15 colon): > 100 µM | TGI (HL-60(TB) leukemia): > 100 µM | TGI (HOP-62 NSCLC): > 100 µM | TGI (HOP-92 NSCLC): 69.8 µM | TGI (HS 578T breast): > 100 µM | TGI (HT29 colon): > 100 µM | TGI (IGROV1 ovarian): > 100 µM | TGI (KM12 colon): > 100 µM | TGI (LOX IMVI melanoma): > 100 µM | TGI (M14 melanoma): > 100 µM | TGI (MALME-3M melanoma): > 100 µM | TGI (MCF7 breast): 75.2 µM | TGI (MDA-MB-231 breast): > 100 µM | TGI (MDA-MB-435): > 100 µM | TGI (MOLT-4 leukemia): 89.2 µM | TGI (NCI-H23 lung): 63.1 µM | TGI (NCI-H460 lung): > 100 µM | TGI (NCI-H522 lung): > 100 µM | TGI (NCI/ADR-RES ovarian): > 100 µM | TGI (OVCAR-3 ovarian): > 100 µM | TGI (OVCAR-4 ovarian): > 100 µM | TGI (OVCAR-5 ovarian): > 100 µM | TGI (OVCAR-8 ovarian): > 100 µM | TGI (PC-3 prostate): 82.7 µM | TGI (RPMI-8226 leukemia): 57.1 µM | TGI (RXF 393 renal): 74 µM | TGI (SF-268 CNS): > 100 µM | TGI (SF-295 CNS): > 100 µM | TGI (SF-539 CNS): > 100 µM | TGI (SK-MEL-2 melanoma): 41.1 µM | TGI (SK-MEL-28 melanoma): > 100 µM | TGI (SK-MEL-5 melanoma): 38.8 µM | TGI (SK-OV-3 ovarian): > 100 µM | TGI (SN12C renal): > 100 µM | TGI (SNB-19 CNS): > 100 µM | TGI (SNB-75 CNS): > 100 µM | TGI (SR leukemia): 66.8 µM | TGI (SW-620 colon): > 100 µM | TGI (T-47D breast): > 100 µM | TGI (TK-10 renal): > 100 µM | TGI (U251 CNS): > 100 µM | TGI (UACC-257 melanoma): > 100 µM | TGI (UACC-62 melanoma): > 100 µM | TGI (UO-31 renal): > 100 µM

CN(C)c1ccc(/C=N/Nc2ccc(-c3nc4ccccc4[nH]3)cc2)cc1
GI50 (786-0 renal): 10.6 µM | TGI (786-0 renal): 38.6 µM | GI50 (A549 NSCLC): 9.33 µM | TGI (A549 NSCLC): 27.1 µM | GI50 (ACHN renal): 8.76 µM | TGI (ACHN renal): 41.7 µM | GI50 (BT-549 breast): 12.4 µM | TGI (BT-549 breast): 35.5 µM | GI50 (CAKI-1 renal): 5 µM | TGI (CAKI-1 renal): > 50 µM | GI50 (COLO 205 colon): 20.3 µM | TGI (COLO 205 colon): > 50 µM | GI50 (DU-145 prostate): 37.8 µM | TGI (DU-145 prostate): > 50 µM | GI50 (EKVX NSCLC): 17.6 µM | TGI (EKVX NSCLC): > 50 µM | GI50 (HCT-116 colon): 15.1 µM | TGI (HCT-116 colon): > 50 µM | GI50 (HCT-15 colon): 6.73 µM | TGI (HCT-15 colon): 35.7 µM | GI50 (HL-60(TB) leukemia): 14.6 µM | TGI (HL-60(TB) leukemia): > 50 µM | GI50 (HOP-62 NSCLC): 20.8 µM | TGI (HOP-62 NSCLC): > 50 µM | GI50 (HOP-92 NSCLC): 12.4 µM | TGI (HOP-92 NSCLC): > 50 µM | GI50 (HS 578T breast): 5.61 µM | TGI (HS 578T breast): 23.6 µM | GI50 (IGROV1 ovarian): 9.37 µM | TGI (IGROV1 ovarian): > 50 µM | GI50 (K-562 leukemia): 2.86 µM | TGI (K-562 leukemia): 16.3 µM | GI50 (KM12 colon): 9.81 µM | TGI (KM12 colon): > 50 µM | GI50 (LOX IMVI melanoma): 4.86 µM | TGI (LOX IMVI melanoma): 11.6 µM | GI50 (M14 melanoma): 13.2 µM | TGI (M14 melanoma): 46.8 µM | GI50 (MCF7 breast): 8.44 µM | TGI (MCF7 breast): 35.6 µM | GI50 (MDA-MB-231 breast): 13.4 µM | TGI (MDA-MB-231 breast): 42.1 µM | GI50 (MDA-MB-435): 8.25 µM | TGI (MDA-MB-435): > 50 µM | GI50 (NCI-H23 lung): 13.8 µM | TGI (NCI-H23 lung): 45.5 µM | GI50 (NCI-H460 lung): 9.33 µM | TGI (NCI-H460 lung): 20.4 µM | GI50 (NCI-H522 lung): 10.3 µM | TGI (NCI-H522 lung): 31.2 µM | GI50 (NCI/ADR-RES ovarian): 10.7 µM | TGI (NCI/ADR-RES ovarian): 32 µM | GI50 (OVCAR-3 ovarian): 31.7 µM | TGI (OVCAR-3 ovarian): > 50 µM | GI50 (OVCAR-5 ovarian): 28.9 µM | TGI (OVCAR-5 ovarian): > 50 µM | GI50 (OVCAR-8 ovarian): 9.79 µM | TGI (OVCAR-8 ovarian): 32.4 µM | GI50 (PC-3 prostate): 7.27 µM | TGI (PC-3 prostate): > 50 µM | GI50 (RPMI-8226 leukemia): 4.6 µM | TGI (RPMI-8226 leukemia): > 50 µM | GI50 (SF-268 CNS): 7.36 µM | TGI (SF-268 CNS): 39.8 µM | GI50 (SF-295 CNS): 3.19 µM | TGI (SF-295 CNS): > 50 µM | GI50 (SK-MEL-2 melanoma): 8.27 µM | TGI (SK-MEL-2 melanoma): 26.4 µM | GI50 (SK-MEL-5 melanoma): 2.03 µM | TGI (SK-MEL-5 melanoma): 9.92 µM | GI50 (SK-OV-3 ovarian): 21.2 µM | TGI (SK-OV-3 ovarian): > 50 µM | GI50 (SN12C renal): > 50 µM | TGI (SN12C renal): > 50 µM | GI50 (SNB-19 CNS): 17.3 µM | TGI (SNB-19 CNS): > 50 µM | GI50 (SW-620 colon): 18.9 µM | TGI (SW-620 colon): > 50 µM | GI50 (T-47D breast): 8.95 µM | TGI (T-47D breast): 40.9 µM | GI50 (TK-10 renal): 47.3 µM | TGI (TK-10 renal): > 50 µM | GI50 (U251 CNS): 6.3 µM | TGI (U251 CNS): 21.5 µM | GI50 (UACC-257 melanoma): 9.81 µM | TGI (UACC-257 melanoma): 25.8 µM | GI50 (UACC-62 melanoma): 8.32 µM | TGI (UACC-62 melanoma): 24.3 µM | GI50 (UO-31 renal): 7.44 µM | TGI (UO-31 renal): 23.8 µM
